This note sets out measurements from patent US20220315624A1, “THIOSTREPTON ANALOGS AND METHODS OF MAKING AND USING SAME” (YALE UNIVERSITY, priority 2019, published 2022).

SMILES strings stand for the structures. Converted amounts (≈) assume the structure as drawn.

The subject of one data set is Gram-positive cocci. The data set can be described thus: MIC broth microdilution, overall summary. The following applies: summary of MIC testing. It is filed as cell-based. Here is the method:
(§1) Twenty-four test agents were shipped to Micromyx and stored at −20° C. until assayed. The compounds were dissolved in 100% DMSO at 6.46 mg/mL prior to testing. Comparator drugs were supplied by Micromyx and were handled as described below:
(§2) The test organisms for the assay were recent clinical isolates or reference strains acquired from the American Type Culture Collection (ATCC; Manassas, Va.). Upon receipt, the isolates were streaked onto Trypticase Soy Agar II+5% sheep blood (TSAB). Colonies were harvested from the plates and a cell suspension was prepared in Trypticase Soy Broth containing cryoprotectant. Aliquots were then frozen at −80° C. Prior to the assay, the frozen seeds of all bacterial isolates to be tested were thawed and streaked for isolation onto TSAB (BD/BBL, Sparks, Md.; Lot No. 9011894), and were incubated overnight at 35° C.
(§3) The test medium for all isolates was cation-adjusted Mueller Hinton broth (CAMHB; BD/BBL; Lot No. 8190586). CAMHB (Cation Adjusted Mueller Hinton Broth) was supplemented with 3% (v/v) lysed horse blood (LHB; Hemostat, Dixon, Calif.; Lot No. 474990) for the testing of streptococci.
(§4) MIC values were determined using a broth microdilution method as recommended by CLSI. Automated liquid handlers (Multidrop 384, Labsystems, Helsinki, Finland; Biomek 2000 and Biomek F/X, Beckman Coulter, Fullerton Calif.) were used to conduct serial dilutions and make liquid transfers.
(§5) The wells of standard 96-well microdilution plates (Costar 3795, Corning Inc., Corning, N.Y.) were filled with 150 μL of the appropriate diluent in columns 2-12 on the Multidrop 384 (DMSO for the thiostrepton analogs, deionized H2O for vancomycin and ceftazidime). These plates were used to prepare the drug “mother plate” which provided the serial drug dilutions for the replicate “daughter plates”. The compounds (300 μL) were dispensed at 101× the highest concentration to be tested into the appropriate row of the “mother plate”. The Biomek 2000 was used to transfer 150 μL of each stock solution from the wells in Column 1 of the mother plate to make ten subsequent 2-fold serial dilutions. The wells of Column 12 contained no drug and served as the organism growth control wells. The daughter plates were loaded with 190 μL of test medium using the Multidrop 384.
The daughter plates were prepared on the Biomek F/X instrument which transferred […] of drug solution from each well of the mother plate to each corresponding well of each daughter plate in a single step. […]
Plates were stacked 3 high, covered with a lid on the top plate, placed in plastic bags, and incubated at 35° C. for 16-20 hr for all organisms except streptococci which were incubated for 20-24 hr. […] The MIC was read and recorded as the lowest concentration of drug that inhibited visible growth of the organism. […]
On the technique in general: In broth dilution the organism is exposed to a series of concentrations in liquid medium.

The next data set relates to S. aureus isolates. The experiment in a line: MIC broth microdilution, S. aureus isolates. The following applies: Staphylococcus aureus; across MSSA and MRSA isolates; read-out: MIC values against S. aureus isolates. It is filed as cell-based. As for the experimental part: as §1, §2, §3, §4, §5
(§6) The daughter plates were prepared on the Biomek F/X instrument which transferred […] of drug solution from each well of the mother plate to each corresponding well of each daughter plate in a single step. The wells of the daughter plates ultimately contained 190 μL of media, 2 μL of drug solution, and 10 μL of inoculum prepared as described below. The final concentration of DMSO (if used as a solvent) in the test well was 1%.
(§7) A standardized inoculum of each organism was prepared per CLSI methods. A suspension of organisms from a fresh plate was prepared in CAMHB to equal the turbidity of a 0.5 McFarland standard. The suspensions were diluted 1:20 in CAMHB, or in the case of streptococci CAMHB with LHB. The inoculum for each organism was dispensed into sterile reservoirs divided by length (Beckman Coulter), and the Biomek 2000 was used to inoculate the plates. Daughter plates were placed on the Biomek 2000 work surface reversed so that inoculation took place from low to high drug concentration. The Biomek 2000 delivered 10 μL of standardized inoculum into each well. These dilutions yielded a final cell concentration in the daughter plates of approximately 5.0×10^5 CFU/mL.
(§8) Plates were stacked 3 high, covered with a lid on the top plate, placed in plastic bags, and incubated at 35° C. for 16-20 hr for all organisms except streptococci which were incubated for 20-24 hr. Following incubation, the microplates were removed from the incubator and viewed from the bottom using a plate viewer. The MIC was read and recorded as the lowest concentration of drug that inhibited visible growth of the organism. […]

Another data set concerns S. aureus MMX 8088 MRSA. The data set can be described thus: MIC broth microdilution. It is filed as cell-based. Particulars: Staphylococcus aureus; S. aureus MMX 8088 MRSA; CAMHB; read-out: MIC. As for the experimental part:
as §1, §2, §3, §4, §5, §6, §7, §8

Another data set has as its system S. pyogenes ATCC 19615. The experiment in a line: MIC broth microdilution. The following applies: Streptococcus pyogenes, ATCC19615, 20 h; S. pyogenes ATCC 19615; CAMHB with 3% lysed horse blood; read-out: MIC. It is filed as cell-based. Here is the method:
as §1, §2, §3, §4, §5, §6, §7, §8

Data set [1] relates to E. faecalis ATCC 29212 VSE. The data set can be described thus: MIC broth microdilution. It is filed as cell-based. The following applies: Enterococcus faecalis, ATCC29212; E. faecalis ATCC 29212 VSE; CAMHB; read-out: MIC. As for the experimental part:
as §1, §2, §3, §4, §5, §6, §7, §8

Data set [2] relates to S. pneumoniae ATCC 49619 PISP. The experiment in a line: MIC broth microdilution. It is filed as cell-based. The following applies: Streptococcus pneumoniae, ATCC49619, 20 h; S. pneumoniae ATCC 49619 PISP; CAMHB with 3% lysed horse blood; read-out: MIC. As for the experimental part: as §1, §2, §3, §4, §5, §6, §7, §8
In data set [3] the test system is S. aureus ATCC 29213 MSSA. The experiment in a line: MIC broth microdilution. It is filed as cell-based. Particulars: Staphylococcus aureus; S. aureus ATCC 29213 MSSA; CAMHB; read-out: MIC. As for the experimental part: as §1, §2, §3, §4, §5, §6, §7, §8
A further data set has as its system E. faecium MMX 485 VRE. The data set can be described thus: MIC broth microdilution. It is filed as cell-based. Particulars: Enterococcus faecium; E. faecium MMX 485 VRE; CAMHB; read-out: MIC. As for the experimental part: as §1, §2, §3, §4, §5, §6, §7, §8
For the next data set, the system named is E. faecium MMX 708 VSE. The data set can be described thus: MIC broth microdilution. Particulars: Enterococcus faecium, MMX708VSE; E. faecium MMX 708 VSE; CAMHB; read-out: MIC. It is filed as cell-based. Here is the method:
as §1, §2, §3, §4, §5, §6, §7, §8

The subject of the next data set is E. coli ATCC 25922. The data set can be described thus: MIC broth microdilution. It is filed as cell-based. The following applies: Escherichia coli, ATCC25922; E. coli ATCC 25922; CAMHB; read-out: MIC. As for the experimental part: as §1, §2, §3, §4, §5, §6, §7, §8
For a further data set, the system named is E. faecalis MMX 486 VRE. The experiment in a line: MIC broth microdilution. It is filed as cell-based. Particulars: Enterococcus faecalis; E. faecalis MMX 486 VRE; CAMHB; read-out: MIC. Here is the method:
as §1, §2, §3, §4, §5, §6, §7, §8

Data set [4] in a line: Aqueous solubility analysis in MOPS buffer. It is filed as physicochemical. Particulars: aqueous 10 mM MOPS buffer, thermodynamic from solid; after 24 hours in 10 mM aqueous MOPS buffer, pH 7.2. Here is the method: A 2 dram vial was loaded with ˜0.5 mg of a thiostrepton derivative and suspended in ˜4 mL of aqueous 10 mM MOPS buffer (pKa 7.2). The suspension was stirred vigorously for 24 h to ensure equilibration, then filtered through a […] centrifuge filtration unit. A 3.0 mL aliquot was concentrated, and the dried residue was diluted with 0.30 mL of 1:1 1,4-dioxane/H2O (10× original concentration necessitated by detection limits). The total UV absorbance (200-300 nm) was measured in triplicate by UPLC runs with a photodiode array detector. A calibration curve for each compound was created using data points from 3 trials each of concentrations in 1:1 1,4-dioxane/H2O ranging from […]. These concentrations were plotted against their respective average absorbances. The experimental concentration of each compound was calculated by dividing the found μg/mL value by the residue concentration factor of 10 to yield the actual solubility value.

A short description of data set [5]: Un-inoculated solubility control plate (drug precipitation). It is filed as physicochemical.
The subject of data set [6] is E. faecalis and E. faecium. The data set can be described thus: MIC broth microdilution, summary over enterococci. It is filed as cell-based. The following applies: across the evaluated enterococci, VSE and VRE. As for the experimental part:
as §1, §2, §3, §4, §5, §6, §7, §8

Take `C=C(NC(=O)c1csc(C2=N[C@@H]3c4csc(n4)[C@H]4NC(=O)c5csc(n5)[C@H]([C@](C)(O)[C@@H](C)O)NC(=O)C5CSC(=N5)/C(=C/C)NC(=O)[C@H]([C@@H](C)O)NC(=O)c5csc(n5)[C@]3(CC2)NC(=O)[C@H](C)NC(=O)C(=C)NC(=O)[C@H](C)NC(=O)[C@H]([C@@H](C)CC)N[C@@H]2C=Cc3c([C@H](C)O)cc(nc3[C@H]2O)C(=O)O[C@@H]4C)n1)C(=O)NC(=CNC(=O)c1cccc(/C=N/OC)c1)C(N)=O` [RJS-11]: the “Activity among the evaluated analogs / against evaluated Gram-positive cocci (summary in words)” value with Gram-positive cocci is listed as “most activity”. In addition, the minimal inhibitory concentration (MIC) – broadly, the smallest concentration in the dilution series that meets the test's criterion for growth inhibition – in the data set on S. aureus isolates was 0.25 to 0.5 µg/mL (≈ 0.136 to 0.272 µM); with S. aureus MMX 8088 MRSA, 0.5 µg/mL (≈ 0.272 µM); in the data set on S. pyogenes ATCC 19615 it was less than 0.001 µg/mL; in data set [1], 0.5 µg/mL (≈ 0.272 µM); in [2], less than 0.001 µg/mL; in data set [3], 0.5 µg/mL (≈ 0.272 µM). The MIC in the data set with E. faecium MMX 485 VRE was 0.25 µg/mL (≈ 0.136 µM); in the data set on E. faecium MMX 708 VSE, 0.25 µg/mL (≈ 0.136 µM); in the data set with E. coli ATCC 25922, greater than 64 µg/mL; with E. faecalis MMX 486 VRE, 0.25 µg/mL (≈ 0.136 µM); in data set [6] (read-out: MIC values against E. faecalis and E. faecium), 0.25 µg/mL (≈ 0.136 µM). In addition, in [4], the solubility (commonly the dissolved amount per volume that the medium holds) at 24 h is less than 1 µg/mL. Further, in data set [5] (at 64 μg/mL in CAMHB), the “Precipitation in CAMHB” value is given as “distinct precipitation”. Further, the “MIC values against E. faecalis and E. faecium” value in data set [6] is 0.5 µg/mL (≈ 0.272 µM).

Turning to `C=C(NC(=O)c1csc(C2=N[C@@H]3c4csc(n4)[C@H]4NC(=O)c5csc(n5)[C@H]([C@](C)(O)[C@@H](C)O)NC(=O)C5CSC(=N5)/C(=C/C)NC(=O)[C@H]([C@@H](C)O)NC(=O)c5csc(n5)[C@]3(CC2)NC(=O)[C@H](C)NC(=O)C(=C)NC(=O)[C@H](C)NC(=O)[C@H]([C@@H](C)CC)N[C@@H]2C=Cc3c([C@H](C)O)cc(nc3[C@H]2O)C(=O)O[C@@H]4C)n1)C(=O)NC(=CNC(=O)c1cccc(/C=N/O)c1)C(N)=O` [RJS-17], the MIC in the data set with S. aureus isolates is 0.25 to 0.5 µg/mL (≈ 0.137 to 0.274 µM); in the data set on S. aureus MMX 8088 MRSA, 0.5 µg/mL (≈ 0.274 µM); with S. pyogenes ATCC 19615, 0.004 µg/mL (≈ 0.00219 µM); in data set [1], 1 µg/mL (≈ 0.547 µM); in data set [2], 0.002 µg/mL (≈ 0.00109 µM); in [3], 0.5 µg/mL (≈ 0.274 µM). Also, the MIC in the data set on E. faecium MMX 485 VRE was 0.5 µg/mL (≈ 0.274 µM); in the data set on E. faecium MMX 708 VSE, 0.5 µg/mL (≈ 0.274 µM); in the data set on E. coli ATCC 25922 it was greater than 64 µg/mL; in the data set with E. faecalis MMX 486 VRE it was 0.5 µg/mL (≈ 0.274 µM). Further, the solubility at 24 h in data set [4] is less than 1 µg/mL. Moreover, the “Precipitation in CAMHB in LHB” value in data set [5] (at 64 μg/mL in CAMHB in LHB) is “distinct precipitation”.
